Test results reported in ChEMBL document CHEMBL3120106, “Novel compounds lowering the cellular isoform of the human prion protein in cultured human cells” (Bioorg Med Chem, 2014).
Active and inactive are the calls of the source. No cut-off for these calls is given here.

Assays:
T98G [1] = assay: cells; details: Homo sapiens, 48 h
[2] = Cmax in CD-1 mouse brain at 10 mg/kg, po administered via gavage as single dose by LC/MS/MS analysis; type: ADME, organism-based; parameters: dose 10 mg/kg, route oral
[3] = Cmax in CD-1 mouse brain at 10 mg/kg, ip administered as single dose by LC/MS/MS analysis; type: ADME, organism-based; parameters: dose 10 mg/kg, route intraperitoneal
[4] = Cmax in CD-1 mouse plasma at 10 mg/kg, po administered via gavage as single dose by LC/MS/MS analysis; type: ADME, organism-based; parameters: dose 10 mg/kg, route oral
[5] = Cytotoxicity against mouse N2a-cl3 cells assessed as cell viability after 2 days by calcein AM assay; type: cell-based; details: n2a-cl3, 48 h
[6] = Decrease in PrPc expression on mouse N2a-cl3 cell surface after 2 days by ELISA; type: functional, cell-based
[7] = Half life in mouse liver microsomes at 1 uM by LC/MS/MS analysis; type: ADME, Microsome
Liver microsome [8] = assay: Metabolic stability in human liver microsomes assessed as compound remaining at 1 uM after 60 mins by LC/MS/MS analysis; type: ADME; details: 1 h
Liver microsome [9] = assay: Half life in human liver microsomes at 1 uM by LC/MS/MS analysis; type: ADME
[10] = Metabolic stability in mouse liver microsomes assessed as compound remaining at 1 uM after 60 mins by LC/MS/MS analysis; type: ADME, Microsome; details: 1 h
T98G [11] = assay: Cytotoxicity against human T98G cells assessed as decrease in cell viability after 2 days by calcein AM assay; type: cell-based; details: 48 h, read-out: LC50 (the source's name)

| SMILES | EC50 (T98G [1]) [µM] | Cmax [2] [nM] | Cmax [3] [nM] | Cmax [4] [nM] | Activity [5] | inhibition [6] | t1/2 [7] [min] | Stability (Liver microsome [8]) [%] | t1/2 (Liver microsome [9]) [min] | Stability [10] [%] | CC50 (T98G [11]) [µM] |
| --- | --- | --- | --- | --- | --- | --- | --- | --- | --- | --- | --- |
| COc1cc(C(=O)c2cc(Cl)ccc2N)cc(OC)c1OC | 0.09 | < 100 | ≤ 16200 | < 100 | – | – | – | – | – | – | – |
| CC1=CC(C)(C)N(S(=O)(=O)c2ccc(C)cc2)c2cc(C)ccc21 | 3.77 | < 100 | ≤ 16200 | < 100 | – | – | – | – | – | – | – |
| COc1ccccc1C(=O)N1CCN(c2ccccc2OC)CC1 | 3.24 | < 100 | ≤ 16200 | < 100 | – | – | – | – | – | – | – |
| Cc1cc(C)c(S(=O)(=O)NCc2ccncc2)c(C)c1 | 4.13 | < 100 | ≤ 16200 | < 100 | – | – | – | – | – | – | – |
| COc1cc(OC)cc(C(=O)Nc2ccc(I)cn2)c1 | 1.31 | < 100 | ≤ 16200 | < 100 | Non-toxic | Active | – | – | – | – | – |
| CCOc1ccc2c(c1)C(C)=CC(C)(C)N2S(=O)(=O)c1ccc(C)cc1 | 0.69 | < 100 | ≤ 16200 | < 100 | – | – | – | – | – | – | – |
| CCOC(=O)c1[nH]c2c(c1C)C(=O)CC(c1ccccc1Cl)C2 (centres undefined) | 0.45 | < 100 | ≤ 16200 | < 100 | – | – | – | – | – | – | – |
| O=C(Cc1ccc(-c2ccccc2)cc1)NCc1ccccc1 | 0.44 | < 100 | ≤ 16200 | < 100 | – | – | 18.5 | 4.6 | 10.3 | 5.8 | > 10 |
| NC(=O)c1ccccc1NC(=O)c1cccnc1N1CCCCC1 | 1.02 | < 100 | ≤ 16200 | < 100 | Non-toxic | Active | 2.8 | 8.3 | 16.7 | 0 | – |
| Cc1c(C(=O)OC(C)C)[nH]c2c1C(=O)CC(c1cccs1)C2 (centres undefined) | 0.24 | < 100 | ≤ 16200 | < 100 | – | – | 3.2 | 1.6 | 9.9 | 0.1 | – |
| CN(C)c1ccc2c(c1)OC(N)=C(C#N)C2c1cccs1 (centres undefined) | 0.22 | – | – | – | – | – | – | – | – | – | – |
| COc1ccc(Cl)cc1C(=O)N1CCN(c2cccc(Cl)c2)CC1 | 0.17 | < 100 | ≤ 16200 | < 100 | – | – | 3 | 0.1 | 6 | 0.1 | – |
| CCOc1ccccc1C1C(C#N)=C(N)Oc2cc(N(C)C)ccc21 (centres undefined) | – | < 100 | ≤ 16200 | < 100 | – | – | 1.9 | 1.3 | 9.7 | 0.1 | – |
| O=C(Cc1ccc(Br)cc1)NCc1ccccc1 | 2.33 | – | – | – | – | – | – | – | – | – | > 10 |
| CCc1nnc(NC(=O)c2ccoc2COc2ccccc2)s1 | 2.24 | < 100 | ≤ 16200 | < 100 | – | – | – | – | – | – | – |
| COc1ccc(Cl)cc1C(=O)N1CC(=O)Nc2ccccc21 | 0.65 | < 100 | ≤ 16200 | < 100 | – | – | – | – | – | – | – |
| CN(C)c1ccc2c(c1)OC(N)=C(C#N)C2c1ccccc1 (centres undefined) | – | < 100 | ≤ 16200 | < 100 | – | – | – | – | – | – | – |
| CCOC(=O)c1[nH]c2c(c1C)C(=O)CC(c1ccco1)C2 (centres undefined) | 0.68 | – | – | – | Non-toxic | Active | – | – | – | – | – |

| SMILES | EC50 (T98G [1]) [µM] | Cmax [2] [nM] | Cmax [3] [nM] | Cmax [4] [nM] | Activity [5] | inhibition [6] | t1/2 [7] [min] | Stability (Liver microsome [8]) [%] | t1/2 (Liver microsome [9]) [min] | Stability [10] [%] | CC50 (T98G [11]) [µM] |
| --- | --- | --- | --- | --- | --- | --- | --- | --- | --- | --- | --- |
| N#Cc1c(NC(=O)CCc2cccs2)sc2c1CCCC2 | 0.15 | < 100 | ≤ 16200 | < 100 | – | – | – | – | – | – | – |
| CCOC(=O)c1[nH]c(C)c(C(=O)c2ccc(C)cc2)c1C | 0.53 | < 100 | ≤ 16200 | < 100 | – | – | – | – | – | – | – |
| Cc1nc2sccn2c1-c1csc(Nc2ccc(N(C)C)nc2)n1 | 0.22 | < 100 | ≤ 16200 | < 100 | – | – | – | – | – | – | – |
| COc1ccc(Cl)cc1NS(=O)(=O)c1ccc(N2CCCC2=O)cc1 | 0.51 | < 100 | ≤ 16200 | < 100 | – | – | – | – | – | – | – |
| COc1ccc(S(=O)(=O)N2CCOc3ccccc32)cc1 | 1.32 | < 100 | ≤ 16200 | < 100 | – | – | 0.7 | 0 | 2 | 0 | – |
| COc1ccc(CC(=O)NCc2ccccc2)cc1 | 3.13 | – | – | – | – | – | – | – | – | – | > 10 |
| O=C(Nc1ccncc1)C1CCCN1S(=O)(=O)c1ccc2ccccc2c1 (centres undefined) | 1.52 | < 100 | ≤ 16200 | < 100 | – | – | – | – | – | – | – |
| Cc1ccn2c(-c3csc(Nc4ccc(N(C)C)cc4)n3)c(C)nc2c1 | 0.11 | – | – | – | – | – | – | – | – | – | – |
| CCOc1ccc(Nc2nc(-c3c(C)nc4sccn34)cs2)cc1 | 0.03 | < 100 | ≤ 16200 | < 100 | – | – | 4.5 | 1.5 | 9.6 | 0.5 | – |
| O=C(Cc1ccc(Cl)cc1)NCc1ccccc1 | > 10 | – | – | – | – | – | – | – | – | – | > 10 |
| CN(C)c1ccc2c(c1)OC(N)=C(C#N)C2c1cccc(F)c1 (centres undefined) | 0.03 | < 100 | ≤ 16200 | < 100 | – | – | – | – | – | – | – |
| O=C(Nc1ccc(I)cn1)c1cccc(F)c1 | 0.45 | < 100 | ≤ 16200 | < 100 | – | – | – | – | – | – | – |
| Cc1nc2ncccn2c1-c1csc(Nc2ccc(Cl)cc2)n1 | 2.44 | – | – | – | – | – | – | – | – | – | – |
| CCN(CC)c1ccc2c(c1)OC(N)=C(C#N)C2c1ccccc1 (centres undefined) | 0.17 | < 100 | ≤ 16200 | < 100 | – | – | – | – | – | – | – |
| COc1cccc(N2CCN(C(=O)c3cc(C)ccc3OC)CC2)c1 | 0.27 | < 100 | ≤ 16200 | < 100 | – | – | 1.6 | 1 | 4.5 | 0 | – |
| COC(=O)c1[nH]c2c(c1C)C(=O)CC(c1cccs1)C2 (centres undefined) | 0.41 | < 100 | ≤ 16200 | < 100 | – | – | – | – | – | – | – |
| CCOC(=O)c1[nH]c2c(c1C)C(=O)CC(c1ccccc1)C2 (centres undefined) | 0.11 | < 100 | ≤ 16200 | < 100 | – | – | – | – | – | – | – |
